Ends that are not written are not given here.
Assays:
Assay type in all cases: cell-based, Candida albicans (ATCC 90028)
[1] = system: planktonic C. albicans cells; experiment: Resazurin reduction / viability assay on planktonic C. albicans cells (broth microdilution, CLSI M27-A3); settings: for inhibition of cell viability: planktonic C. albicans, 2.5 × 10^3 cells per well, 20 µg/mL, 24 h, 37 °C, RPMI-1640, resazurin fluorescence, vs untreated cells, triplicate; for Antimycrobial Activity against Planktonic C. albicans Cells [%] at 20 µg/mL: in comparison to Pom-1 (= 100%), 20 µg/mL peptide
Procedure: The viability of treated C. albicans cells with Pom-1A to F was determined according to the Clinical and Laboratory Standards Institute guidelines (M27-A3) for the broth microdilution assay. For this, 2.5 × 10^3 yeast cells were incubated in 200 µL of RPMI-1640 medium (supplemented with L-glutamine) in the presence of various concentrations of Pom-1A to F (2.5–20 µg/mL) in flat-bottomed polystyrene microtiter plates with 96 wells (Sarstedt AG and Co. KG, Nümbrecht, Germany) at 37 °C with shaking at 900 rpm on an Eppendorf shaker. Quantitation of viable yeast cells was performed using a Resazurin-reduction-Assay. For this, yeast cells were incubated with 20 µL of 0.15 mg/mL resazurin solution for 2 h. During this time, the viable cells were able to reduce the resazurin to resorufin. […] For this purpose, a dilution series was prepared for each sample in RPMI 1640 medium and 1 µL was added to Sabouraud agar plates, which were then incubated for 24 h at 37 °C, respectively. To determine the antifungal effect of the peptide derivatives on planktonic C. albicans cells, different concentrations (2.5–20 µg/mL) of the peptides were applied to fixed cell numbers (2.5 × 10^3 cells per well) and were incubated for 24 h in a suspension microtiter plate.

[2] = system: C. albicans biofilm; parameters: semi inhibitory concentration (IC50) of biofilm formation / IC50 Values against Biofilm Formation: unit not given here; settings: for semi inhibitory concentration (IC50) of biofilm formation / IC50 Values against Biofilm Formation: C. albicans, crystal violet, 24 h, 37 °C, 2.5–20 µg/mL, Hill fit, triplicate; for semi inhibitory concentration (IC50) of biofilm formation: Figure 4A; for IC50 Values against Biofilm Formation: without agitation, Table 1 (rounded); for Antimicrobial Activity against C. albicans Biofilm [%] Based on IC50 Values: in comparison to Pom-1 (= 100%), from IC50 values
Procedure: The analysis of the antifungal effect of the peptides on biofilm followed the same conditions as described previously. In brief, 2.5 × 10^3 yeast cells were incubated in 200 µL RPMI-1640 medium with L-glutamine in flat-bottomed polystyrene microtiter plates with 96 wells (Sarstedt AG and Co. KG, Nümbrecht, Germany) with the respective peptides at different concentrations (2.5–20 µg/mL) for 24 h at 37 °C, but without agitation. The quantification of the biofilm took place due to a crystal violet assay, which was originally developed by George O’ Toole for bacteria and was adapted for Candida biofilms. For this, the planktonic phase in the wells was removed and the biofilms were washed twice with 200 µL of demineralized water. Subsequently, the cells in the biofilm were stained for 15 min with 200 µL of a 0.1% (w/v) crystal violet solution. The solution was then removed again and the stained cells were washed twice with 200 µL of demineralized water. Then, the biofilms in the microtiter plate were dried for 24 h at 25 °C. These were then mixed with 200 µL of 30% acetic acid. After 15 min, the stained solution was transferred to a new microtiter plate and the absorbance at 560 nm was measured using a Tecan infinite F200 microplate reader. The data obtained were then graphically identified using a Hill non-linear dose-response equation and the semi-inhibitory concentration (IC50) was determined, at which 50% of the biofilm was not formed compared to the untreated control.
In order to evaluate the potential of the novel Pom-1A-F peptides, the well established crystal violet assay for microbial cultures in microtiter plates was performed to quantify the biomass formed.

[3] = system: C. albicans biofilm; experiment: Microscopic analysis of treated C. albicans biofilms; settings: 20 µg/mL, 24 h at 37 °C, transmitted light, compared with untreated and Pom-1 control biofilms
Procedure: C. albicans biofilms were treated with Pom-1, and its derivatives in comparison to an untreated bifilm control (Figure 4B).
Figure 4 Antifungal activity of Pom-1A to F towards C. albicans biofilms. (A) Determined dose-dependent effect of Pom-1 derivatives on biofilm mass by crystal violet assay with fluconazole and Pom-1 as the control agent. All experiments were performed in triplicate and error bars indicate standard deviations. (B) Microscopic analysis using a Leica DMi8 coded (Leica Microsystems CMS GmbH, Wetzlar, Germany) microscope) of untreated C. albicans biofilm and biofilm treated with Pom-1 and its derivatives (20 µg/mL) after 24 h of incubation at 37 °C under transmitted light. TEXT PRINTED IN THE PICTURE: (A) Pom-1A: IC50: 0.9555 | (A) Pom-1B: IC50: 0.008353 | (A) Pom-1C: IC50: 0.08687 | (A) Pom-1D: IC50: 4.930e-032 | (A) Pom-1E: IC50: 2.893 | (A) Pom-1F: IC50: 0.1570 DOUBTS OF THE COPYIST ABOUT THIS PICTURE: Pom-1A, IC50: small print, 0.9555 could be 0.9535 or 0.9556 / Pom-1B, IC50: small print, 0.008353 digits 8/3/5 not certain / Pom-1C, IC50: small print, 0.08687 digits 8/6 not certain / Pom-1D, IC50: small print, 4.930e-032 digits 9/3 not certain / Pom-1E, IC50: small print, 2.893 digits 8/9/3 not certain / Pom-1F, IC50: small print, 0.1570 digit 5 not certain

[4] = system: C. albicans planktonic cells; experiment: Plate spot assay (colony formation after treatment of planktonic cells); settings: after 24 h incubation with peptide (2.5–20 µg/mL), dilutions spotted on Sabouraud agar, further 24 h at 37 °C
Procedure: The viability of treated C. albicans cells with Pom-1A to F was determined according to the Clinical and Laboratory Standards Institute guidelines (M27-A3) for the broth microdilution assay. For this, 2.5 × 10^3 yeast cells were incubated in 200 µL of RPMI-1640 medium (supplemented with L-glutamine) in the presence of various concentrations of Pom-1A to F (2.5–20 µg/mL) in flat-bottomed polystyrene microtiter plates with 96 wells (Sarstedt AG and Co. KG, Nümbrecht, Germany) at 37 °C with shaking at 900 rpm on an Eppendorf shaker. Quantitation of viable yeast cells was performed using a Resazurin-reduction-Assay. For this, yeast cells were incubated with 20 µL of 0.15 mg/mL resazurin solution for 2 h. During this time, the viable cells were able to reduce the resazurin to resorufin. […] The data obtained were subsequently identified in a Hill nonlinear dose-response equation and the semi-inhibitory concentration (IC50) could be determined, at which the cell viability was reduced by 50% compared to the untreated control. In addition, after incubation, 1 µL cell suspension was taken from each well of the microtiter plate to visually confirm the graphical results in a plate spot assay. For this purpose, a dilution series was prepared for each sample in RPMI 1640 medium and 1 µL was added to Sabouraud agar plates, which were then incubated for 24 h at 37 °C, respectively.
For this purpose, 1 µL cell suspension was taken from each well before adding the resazurin solution from the suspension microtiter plate. This sample was then diluted and was added to a Sabourand agar plate, which was then incubated for an additional 24 h for colony formation.

OC(Cn1cncn1)(Cn1cncn1)c1ccc(F)cc1F [fluconazole, reference compound]
inhibition of cell viability [1]: up to 70%

AGSIAWAIGSGLFGGAKLIKIKKY [Pom-1C]
semi inhibitory concentration (IC50) of biofilm formation [2]: 0.08687 | IC50 Values against Biofilm Formation [2]: 0.08 | Antimicrobial Activity against C. albicans Biofilm [%] Based on IC50 Values [2]: 4750% | Antimycrobial Activity against Planktonic C. albicans Cells [%] at 20 µg/mL [1]: 100%

AIGSGLFGGAKLIKIKKYI [Pom-1F]
biofilm cell density / surface coverage by microscopy [3]: slightly higher surface coverage | semi inhibitory concentration (IC50) of biofilm formation [2]: 0.1570 | IC50 Values against Biofilm Formation [2]: 0.16 | Antimicrobial Activity against C. albicans Biofilm [%] Based on IC50 Values [2]: 2375% | Antimycrobial Activity against Planktonic C. albicans Cells [%] at 20 µg/mL [1]: 82%

H-KCAGSIAWAIGSGLFGGAKLIKIKKYIAELGGLQ-OH [Pom-1]
biofilm cell density / surface coverage by microscopy [3]: significant reduction | IC50 Values against Biofilm Formation [2]: 3.8 | Antimicrobial Activity against C. albicans Biofilm [%] Based on IC50 Values [2]: 100% | Antimycrobial Activity against Planktonic C. albicans Cells [%] at 20 µg/mL [1]: 100%

IGSGLFGGAKLIKIKKYI [Pom-1A]
colony formation in plate spot assay [4]: colony formation decreased with the increase of peptide concentrations | semi inhibitory concentration (IC50) of biofilm formation [2]: 0.9555 | IC50 Values against Biofilm Formation [2]: 0.95 | Antimicrobial Activity against C. albicans Biofilm [%] Based on IC50 Values [2]: 400% | Antimycrobial Activity against Planktonic C. albicans Cells [%] at 20 µg/mL [1]: 133%

IGSGLFGGAKLIKIKKYIA [Pom-1D]
colony formation in plate spot assay [4]: colony formation decreased with the increase of peptide concentrations | Antimycrobial Activity against Planktonic C. albicans Cells [%] at 20 µg/mL [1]: 97%

KCAGSIAWAIGSGLFGGAKLIKIKK [Pom-1E]
biofilm cell density / surface coverage by microscopy [3]: slightly higher surface coverage | semi inhibitory concentration (IC50) of biofilm formation [2]: 2.893 | IC50 Values against Biofilm Formation [2]: 2.89 | Antimicrobial Activity against C. albicans Biofilm [%] Based on IC50 Values [2]: 131% | Antimycrobial Activity against Planktonic C. albicans Cells [%] at 20 µg/mL [1]: 153%

KCAGSIAWAIGSGLFGGAKLIKIKKY [Pom-1B]
colony formation in plate spot assay [4]: colony formation decreased with the increase of peptide concentrations | semi inhibitory concentration (IC50) of biofilm formation [2]: 0.008353 | IC50 Values against Biofilm Formation [2]: 0.008 | Antimicrobial Activity against C. albicans Biofilm [%] Based on IC50 Values [2]: 47500% | Antimycrobial Activity against Planktonic C. albicans Cells [%] at 20 µg/mL [1]: 160% | inhibition of cell viability [1]: up to 70%

Source: paper PMC8877593, “Increased Activities against Biofilms of the Pathogenic Yeast Candida albicans of Optimized Pom-1 Derivatives” (Pharmaceutics, 2022)
